In PubChem BioAssay AID270 (DTP/NCI, 2004):
Several values for one entry are separate records, joined by “and”; a condition that tells them apart may be missing. Equal entries are not always repeated. Results filed as inconclusive are left out.

Test system: BDF1 mice, s.c. Lewis lung carcinoma, T/C %
Test: NCI In Vivo Anticancer Drug Screen. Data for tumor model Lewis Lung Carcinoma (subcutaneous) in B6D2F1 (BDF1) mice
Summary of the method: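 Transplanted tumors grown in mice; compound vs vehicle dosing; endpoint survival or tumor size; ratio T/C.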

[1] = endpoint: median survival time, dose: 2.5 mg/kg/injection, schedule: Q01DX009 (ip), vehicle: Klucel (hydroxypropylcellulose) (HPC), higher = longer survival
[2] = endpoint: median survival time, dose: 5.0 mg/kg/injection, schedule: Q01DX009 (ip), vehicle: Klucel (hydroxypropylcellulose) (HPC), higher = longer survival
[3] = endpoint: median survival time, dose: 10.0 mg/kg/injection, schedule: Q01DX009 (ip), vehicle: Klucel (hydroxypropylcellulose) (HPC), higher = longer survival
[4] = endpoint: mean tumor weight, dose: 25.0 mg/kg/injection, schedule: Q01DX011 (ip), vehicle: saline, higher = larger tumour
[5] = endpoint: mean tumor weight, dose: 50.0 mg/kg/injection, schedule: Q01DX011 (ip), vehicle: saline, higher = larger tumour
[6] = endpoint: mean tumor weight, dose: 100.0 mg/kg/injection, schedule: Q01DX011 (ip), vehicle: saline, higher = larger tumour
[7] = endpoint: median survival time, dose: 1.0 mg/kg/injection, schedule: Q01DX009 (ip), vehicle: saline, higher = longer survival

In the case of `NC(C/[N+]([O-])=N/O)C(=O)O` (stereo unspecified), the T/C (endpoint: median survival time, dose: 8.78 mg/kg/injection, schedule: Q01DX010 (ip), vehicle: alkali diluted with saline, higher = longer survival) is reported as 103 % of control and 105 % of control, the T/C (endpoint: median survival time, dose: 13.2 mg/kg/injection, schedule: Q01DX010 (ip), vehicle: alkali diluted with saline, higher = longer survival) is reported as 120 % of control and 121 % of control and the T/C (endpoint: median survival time, dose: 19.8 mg/kg/injection, schedule: Q01DX010 (ip), vehicle: alkali diluted with saline, higher = longer survival) is reported as 102 % of control. The T/C (endpoint: median survival time, dose: 29.6 mg/kg/injection, schedule: Q01DX010 (ip), vehicle: alkali diluted with saline, higher = longer survival) was 105 % of control, the T/C (endpoint: median survival time, dose: 44.4 mg/kg/injection, schedule: Q01DX010 (ip), vehicle: alkali diluted with saline, higher = longer survival) was 114 % of control and 116 % of control and the T/C (endpoint: median survival time, dose: 66.7 mg/kg/injection, schedule: Q01DX010 (ip), vehicle: alkali diluted with saline, higher = longer survival) was 117 % of control. The T/C (endpoint: median survival time, dose: 100.0 mg/kg/injection, schedule: Q01DX010 (ip), vehicle: alkali diluted with saline, higher = longer survival) was 98 % of control and the T/C (endpoint: median survival time, dose: 1000.0 mg/kg/injection, schedule: Q01DX001 (ip), vehicle: saline, higher = longer survival) was 96 % of control.

In the case of `COc1cc(C=Nc2ccc(-n3ccnc3C)cc2)ccc1N(CCCl)CCCl`, the T/C [1] is reported as 116 % of control, the T/C [2] is reported as 103 % of control and the T/C [3] is reported as 113 % of control.

In the case of `CC(C)CCSc1nc(N)nc2nc[nH]c12`, the T/C (endpoint: mean tumor weight, dose: 300.0 mg/kg/injection, schedule: Q01DX011 (ip), vehicle: other, higher = larger tumour) is reported as 59 % of control.

For `O=c1c(O)c(-c2ccc(O)c(O)c2)oc2cc(O)cc(O)c12`, the T/C (endpoint: mean tumor weight, dose: 12.5 mg/kg/injection, schedule: Q01DX011 (ip), vehicle: saline, higher = larger tumour) was 86 % of control, the T/C [4] was 71 % of control and the T/C [5] was 61 % of control. For the same molecule, the T/C [6] was 100 % of control.

With `Oc1ccc(O)c(/C=N/NC(=S)NC2CC3CC2C2C=CCC32)c1` (stereo unspecified) the T/C (endpoint: median survival time, dose: 25.0 mg/kg/injection, schedule: Q01DX009 (ip), vehicle: olive oil, sesame oil, peanut oil, higher = longer survival) was 87 % of control and the T/C (endpoint: median survival time, dose: 50.0 mg/kg/injection, schedule: Q01DX009 (ip), vehicle: olive oil, sesame oil, peanut oil, higher = longer survival) was 86 % of control.

`O=[N+]([O-])c1cc([N+](=O)[O-])c(Br)cc1Cl` was tested, and the T/C [1] was 104 % of control, the T/C [2] was 97 % of control and the T/C [3] was 105 % of control.

`O=C1c2c(O)ccc(O)c2C(=O)c2c(NCCNCCO)ccc(NCCNCCO)c21` was tested, and the T/C (endpoint: median survival time, dose: 0.25 mg/kg/injection, schedule: Q01DX009 (ip), vehicle: acid diluted with saline, higher = longer survival) was 88 % of control, the T/C (endpoint: median survival time, dose: 0.5 mg/kg/injection, schedule: Q01DX009 (ip), vehicle: acid diluted with saline, higher = longer survival) was 95 % of control and the T/C (endpoint: median survival time, dose: 0.5 mg/kg/injection, schedule: Q01DX009 (ip), vehicle: saline with Tween-80, higher = longer survival) was 86 % of control and 106 % of control and 114 % of control. The T/C (endpoint: median survival time, dose: 1.0 mg/kg/injection, schedule: Q01DX009 (ip), vehicle: acid diluted with saline, higher = longer survival) was 102 % of control, the T/C (endpoint: median survival time, dose: 1.0 mg/kg/injection, schedule: Q01DX009 (ip), vehicle: saline with Tween-80, higher = longer survival) was 104 % of control and 105 % of control and 106 % of control and the T/C (endpoint: median survival time, dose: 1.0 mg/kg/injection, schedule: Q## X004 (ip), vehicle: acid diluted with saline, higher = longer survival) was 89 % of control. The T/C (endpoint: median survival time, dose: 2.0 mg/kg/injection, schedule: Q01DX009 (ip), vehicle: saline with Tween-80, higher = longer survival) was 95 % of control, the T/C (endpoint: median survival time, dose: 2.0 mg/kg/injection, schedule: Q## X004 (ip), vehicle: acid diluted with saline, higher = longer survival) was 89 % of control and the T/C (endpoint: median survival time, dose: 4.0 mg/kg/injection, schedule: Q## X004 (ip), vehicle: acid diluted with saline, higher = longer survival) was 101 % of control.

`OC(COc1cccc2ccccc12)CN(CCCl)CCCl` (stereo unspecified) was tested, and the T/C (endpoint: median survival time, dose: 1.25 mg/kg/injection, schedule: Q01DX009 (ip), vehicle: Klucel (hydroxypropylcellulose) (HPC), higher = longer survival) was 94 % of control and 104 % of control, the T/C [1] was 100 % of control and 101 % of control and the T/C [2] was 103 % of control.

For `O=C1c2ccccc2CCc2ccccc21`, the T/C (endpoint: mean tumor weight, dose: 133.0 mg/kg/injection, schedule: Q01DX011 (ip), vehicle: other, higher = larger tumour) was 91 % of control, the T/C (endpoint: mean tumor weight, dose: 200.0 mg/kg/injection, schedule: Q01DX011 (ip), vehicle: other, higher = larger tumour) was 173 % of control and the T/C (endpoint: mean tumor weight, dose: 450.0 mg/kg/injection, schedule: Q01DX011 (ip), vehicle: other, higher = larger tumour) was 74 % of control.

With `Cc1ccc(N2CCN(CCCN3CCN(c4ccc(Cl)cc4)CC3)CC2)cc1` the T/C (endpoint: mean tumor weight, dose: 12.5 mg/kg/injection, schedule: Q01DX011 (ip), vehicle: other, higher = larger tumour) was 66 % of control, the T/C (endpoint: mean tumor weight, dose: 25.0 mg/kg/injection, schedule: Q01DX011 (ip), vehicle: other, higher = larger tumour) was 108 % of control and the T/C (endpoint: mean tumor weight, dose: 50.0 mg/kg/injection, schedule: Q01DX011 (ip), vehicle: other, higher = larger tumour) was 70 % of control. For the same molecule, the T/C (endpoint: mean tumor weight, dose: 100.0 mg/kg/injection, schedule: Q01DX011 (ip), vehicle: other, higher = larger tumour) was 50 % of control.

With `C[C@@H]1CCC[C@@H](NC(=O)N(CCCl)N=O)C1` the T/C (endpoint: median survival time, dose: 4.68 mg/kg/injection, schedule: Q01DX009 (ip), vehicle: Klucel (hydroxypropylcellulose) (HPC), higher = longer survival) was 97 % of control, the T/C (endpoint: median survival time, dose: 9.37 mg/kg/injection, schedule: Q01DX009 (ip), vehicle: Klucel (hydroxypropylcellulose) (HPC), higher = longer survival) was 98 % of control and the T/C (endpoint: median survival time, dose: 18.75 mg/kg/injection, schedule: Q01DX009 (ip), vehicle: Klucel (hydroxypropylcellulose) (HPC), higher = longer survival) was 108 % of control.

`CS(=O)(=O)OC[C@@H](O)[C@@H](O)COS(C)(=O)=O` was tested, and the T/C (endpoint: mean tumor weight, dose: 62.5 mg/kg/injection, schedule: Q01DX011 (ip), vehicle: saline, higher = larger tumour) was 71 % of control, the T/C (endpoint: mean tumor weight, dose: 250.0 mg/kg/injection, schedule: Q01DX011 (ip), vehicle: saline, higher = larger tumour) was 115 % of control and the T/C (endpoint: mean tumor weight, dose: 500.0 mg/kg/injection, schedule: Q01DX011 (ip), vehicle: saline, higher = larger tumour) was 94 % of control. For the same molecule, the T/C (endpoint: mean tumor weight, dose: 750.0 mg/kg/injection, schedule: Q01DX011 (ip), vehicle: other, higher = larger tumour) was 100 % of control and the T/C (endpoint: mean tumor weight, dose: 1000.0 mg/kg/injection, schedule: Q01DX011 (ip), vehicle: other, higher = larger tumour) was 98 % of control.

In the case of `CC(C)=CCC/C(C)=C/C=O`, the T/C (endpoint: mean tumor weight, dose: 50.0 mg/kg/injection, schedule: Q01DX010 (ip), vehicle: saline, higher = larger tumour) is reported as 84 % of control and the T/C (endpoint: mean tumor weight, dose: 100.0 mg/kg/injection, schedule: Q01DX010 (ip), vehicle: saline, higher = larger tumour) is reported as 61 % of control.

`C=C1CC/C=C(\C)CCC2C1CC2(C)C` (stereo unspecified) was tested, and the T/C [4] was 94 % of control, the T/C [5] was 88 % of control and the T/C [6] was 45 % of control.

`Oc1cc(N2CC2)c(O)cc1N1CC1` was tested, and the T/C (endpoint: median survival time, dose: 0.22 mg/kg/injection, schedule: Q01DX009 (ip), vehicle: saline, higher = longer survival) was 106 % of control, the T/C (endpoint: median survival time, dose: 0.44 mg/kg/injection, schedule: Q01DX009 (ip), vehicle: saline, higher = longer survival) was 105 % of control and the T/C (endpoint: median survival time, dose: 0.68 mg/kg/injection, schedule: Q01DX009 (ip), vehicle: saline, higher = longer survival) was 110 % of control. The T/C [7] was 90 % of control.

`COc1ccc(CC2C(=O)NC(C)C(=O)N(C)C3C(=O)N(C)C(Cc4ccc(O)c(c4)Oc4ccc(cc4)C3O)C(=O)NC(C)C(=O)NC(C)C(=O)N2C)cc1` (stereo unspecified) was tested, and the T/C (endpoint: median survival time, dose: 0.25 mg/kg/injection, schedule: Q01DX009 (ip), vehicle: saline, higher = longer survival) was 96 % of control, the T/C (endpoint: median survival time, dose: 0.5 mg/kg/injection, schedule: Q01DX009 (ip), vehicle: saline, higher = longer survival) was 97 % of control and the T/C [7] was 113 % of control. The T/C (endpoint: median survival time, dose: 2.0 mg/kg/injection, schedule: Q01DX009 (ip), vehicle: saline, higher = longer survival) was 87 % of control.

In the case of `CCOC(=O)C(Br)CC` (stereo unspecified), the T/C (endpoint: mean tumor weight, dose: 148.0 mg/kg/injection, schedule: Q01DX011 (ip), vehicle: other, higher = larger tumour) is reported as 77 % of control.

`COc1ccc(-c2cc(=O)c3c(OC)c(OC)c(OC)c(OC)c3o2)cc1OC` was tested, and the T/C [5] was 55 % of control and 77 % of control and the T/C (endpoint: mean tumor weight, dose: 200.0 mg/kg/injection, schedule: Q01DX011 (ip), vehicle: saline, higher = larger tumour) was 62 % of control and 78 % of control.

For `CC1CCC[N-]C1.CC1CCC[N-]C1.CC1CCC[N-]C1.CC1CCC[N-]C1.[Cl][Rh][Cl]` (stereo unspecified), the T/C (endpoint: median survival time, dose: 3.0 mg/kg/injection, schedule: Q01DX009 (ip), vehicle: Klucel (hydroxypropylcellulose) (HPC), higher = longer survival) was 102 % of control and the T/C (endpoint: median survival time, dose: 6.0 mg/kg/injection, schedule: Q01DX009 (ip), vehicle: Klucel (hydroxypropylcellulose) (HPC), higher = longer survival) was 91 % of control.
